Experimental data from patent publication US12012375B2, “Prostaglandin F2 alpha derivatives for decreasing intraocular pressure” (GURUS BIOPHARM LIMITED LIABILITY COMPANY, priority 2018, dated 2024).

Assays:
3T3-L1 cells [1] = assay: Nitric oxide generation (modified Griess method); assay type: cell-based, mice; details: for NO generation, % to control: mice 3T3-L1 cells, concentration of 100 μM, 20 hours
Method: (§1) 3T3-L1 cells were incubated at 95% humidity, in the 5% CO2 atmosphere, at 37° C. Cultivation was performed in DMEM medium comprising 7% FCS, 2 mM of glutamine, 100 U/ml of penicillin, 100 μg/ml of streptomycin and 0.25 μg/ml of amphotericin B. Cells were subcultured every 48-72 hours. For the purpose of suspending the cells were incubated in Versene's solution within 2-3 minutes and in Trypsin-EDTA solution (0.25%).
Cells were inoculated by 30 thousand into wells (monolayer) of 96-well plate in 100 μl of medium. Incubation with substances lasted 20 hours. After that, medium aliquot was sampled from each well, and NO concentration was determined by modified Griess method. 12.5 μl of 0.04% sulfanilamide water solution were added to 75 μl of test medium in wells of 96-well plate for EIA, held within 10 minutes at room temperature protected from light, then, 12.5 μl of 2% naphthylethylenediamine solution in 3M of HCl were added, held again for 10 minutes at room temperature protected from light, then the optical absorption was determined at the wavelength of 540 nm.

3T3-L1 cells [2] = assay: Cytotoxicity, MTT assay of cell survival; assay type: cell-based; details: cultivated mice 3T3-L1 cells, 24 hours incubation
Method: as §1, with “solution within 1 minute and in” for “solution within 2-3 minutes and in”, “Trypsin-EDTA solution within 1 minute (0.25%).” for “Trypsin-EDTA solution (0.25%).”
(§2) Cells were inoculated by 30 thousand into wells of 96-well plate (monolayer) in 100 μl of medium for MTT-test. After 24 hours of cultivation 100 μl of test substances in the medium used for cell culture were added to the cells with replacement of culture medium with a new one. Cells were incubated with test substances for 24 hours. Cells, to which 100 μl of medium used for cell culture were added to, were used as […].
(§3) Assessment of cell survival in the culture using the MTT assay After the incubation, the medium was removed from each well, and then 100 μl of MTT solution were added to each well (0.5 mg/ml of MTT, 3.5 mg/ml of D-glucose in Hanks' solution). The plate was placed into CO2-incubator (Ependorf, Germany) for 1.5 h. After that, MTT was removed and 100 μl of DMSO were added to each well and mixed for 2 minutes in a shaker at 550 rpm. Then, the solution optical density was determined at the wavelength of 576 nm and 620 nm using a plate reader (EFOS 9305, OAO MZ Sapphir).

normotensive rabbits = assay: Reducing intraocular pressure after instillation in normotensive rabbits; assay type: in vivo, chinchilla rabbits; details: for IOP reduction: single instillation of 2 drops into both eyes, maximum value of 5 animals' average data within 6 hours
Method: The study was performed on chinchilla rabbits with a mass of 2.5-3 kg. IOP was measured by automatic manual veterinary tonometer Tonovet (Icare, Finland).
2 groups of rabbets were used for testing each sample:
5 animals instilled with a single dose of sample into both eyes.
5 animals instilled with a single dose of normal saline into both eyes.
All test samples were instilled by 2 drops by a disposable pipette. IOP was measured before instillation and further, every hour within 6 hours. All tested substances were capable of reducing intraocular pressure in normotensive rabbits.

[3] = Cytotoxicity, MTT assay of cell survival; assay type: cell-based; details: mouse, cultivated mice 3T3-L1 cells, 24 hours incubation
Method: as §1, with “solution within 1 minute and in” for “solution within 2-3 minutes and in”, “Trypsin-EDTA solution within 1 minute (0.25%).” for “Trypsin-EDTA solution (0.25%).”
as §2, §3

3T3-L1 cells [4] = assay: Increase of intracellular calcium concentration (Calcium Green fluorescence); assay type: cell-based, mice; details: 67 μM stated for the reference substances, for 10 minutes
Method: 3T3-L1 cells were cultivated in DMEM medium with addition of 10% fetal calf serum (FCS), 4 mM of L-glutamine, 100 U/ml of penicillin, 100 μg/ml of streptomycin, 2.5 μg/ml of amphotericin B. Cells were cultured in the atmosphere of 5% CO2, 95% humidity at 37° C. Cell density at the time of experiment was 7000 per well of a 96-well plate, Calcium Green dye (1.5 mM, loading in 0.4% Pluronic F-62 in incubation medium without BSA for 1 hour at 37° C., triple washing of 200 μl of incubation medium after loading), incubation medium: Hanks' solution, 1 g/l of D-glucose, 1 mg/ml of fat-free BSA, introduction of substances in ethanol (<0.5% final concentration), incubation at 25° C., detecting at the excitation wavelength 485 nm, emission wavelength 535 nm.

Row | Compound | NO generation, % to control (3T3-L1 cells [1]) [%] | EC50 (3T3-L1 cells [2]) [µM] | IOP reduction (normotensive rabbits) [mm Hg] | calcium sensor fluorescence increase relative to control (3T3-L1 cells [4]) [AU] | other results
1 | CCCCCC(O)C=CC1C(O)CC(O)C1CC=CCCCC(=O)NC(CO)C(=O)O [Compound 2, Prostaglandin F2α Amide with L-Serine] | 25 | > 200 |  |  | 
2 | CCCCC[C@H](O)/C=C/[C@@H]1[C@@H](C/C=C\CCCC(=O)NC2CC2)[C@@H](O)C[C@H]1O [Compound 6, Prostaglandin F2α Amide with Cyclopropylamine] | 5 | 124 ± 2 | 3.30 |  | ability to reduce intraocular pressure (in words) (normotensive rabbits): more prominent
3 | CCCCCC(O)C=CC1C(O)CC(O)C1CC=CCCCC(=O)N1CCCC1CO [Compound 7, Prostaglandin F2a Amide with L-Prolinol] | 15 | 104 ± 2 |  |  | 
4 | CCCCC[C@H](O)/C=C/[C@@H]1[C@@H](C/C=C\CCCC(=O)NCCOC(=O)NCCO[N+](=O)[O-])[C@@H](O)C[C@H]1O [Compound 11, Prostaglandin F2α Amide with 2-Aminoethyl-[2-(Nitroxy)Ethyl]Carbamate] | 28 |  | 1.50 |  | EC50 at 24 h [3]: 184 ± 3 µM
5 | CCCCC[C@H](O)/C=C/[C@@H]1[C@@H](C/C=C\CCCC(=O)NCCO)[C@@H](O)C[C@H]1O [prostamide F2, prostaglandin F2α ethanolamide] |  |  |  | 185 | 
6 | Prostaglandin F2α Amide with L-Nitroserine Isopropyl Ether [Compound 5] |  | 195 ± 2 | 1.20 |  | 
7 | Prostaglandin F2α Amide with L-Nitroserine [Compound 1] | 7 | 226.4 ± 2 |  |  | 
8 | Prostaglandin F2α Amide with L-Serine Isopropyl Ether [Compound 3] | 15 | 144 ± 3 | 3.20 | 405 | nitric oxide level increase relative to control (3T3-L1 cells [1]; 3T3-L1 cells, 25 μM): 60%; concentration of maximum activity (most effective concentration) for induction of nitrogen oxide generation (3T3-L1 cells [1]; 3T3-L1 cells, tested 25 to 100 μM): 25 µM; ability to reduce intraocular pressure (in words) (normotensive rabbits): more prominent
9 | Prostaglandin F2α Amide with γ-Aminobutyric Acid Nitroethanolamide [Compound 8] | 22 |  | 2.00 |  | 
10 | prostaglandin F2α |  |  |  | 195 | 
